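Five concentrations, 48 hours, 96-well plates. At the GI50, growth is halved. TGI denotes the concentration required for complete inhibition of growth.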 Where a SMILES comes first, the peptide text is derived from it. The star is where a group is joined. Fmoc = O=C(OCC1c2ccccc2-c2ccccc21)*; OBn = c1ccc(CO*)cc1; tBu = CC(C)(C)*

Common to all, as to experiment: NCI anticancer screen, dose series, 48 h
Assay [1] relates to TK-10 renal.
In assay [2] the test system is SNB-19 CNS.
Assay [3] has as its system PC-3 prostate.
The test system of assay [4] is SW-620 colon.
The test system of assay [5] is CCRF-CEM leukemia.
Assay [6] concerns HOP-92 NSCLC.
Assay [7] deals with HCT-116 colon.
For assay [8], the system named is LOX IMVI melanoma.
The subject of assay [9] is OVCAR-3 ovarian.
Assay [10] relates to SNB-75 CNS.

As for `C=C(CCC(=O)N(CCc1c[nH]c2ccccc12)C(=O)c1ccccc1CSCC)C(=O)OC`, the TGI in assay [1], in [2], in assay [3], in [4], in [5] and in [6] was above 100 µM throughout. Moreover, the TGI in assay [7], in assay [8], in assay [9] and in [10] was above 100 µM each time.

For `CCOC1OC(C)(C=C(C#N)C#N)CCC1C` (stereo unspecified), the TGI in assay [1] is above 100 µM; in [2] it was above 100 µM; in assay [3], above 100 µM; in assay [4], above 100 µM; in assay [5], above 86 µM; in assay [6], above 100 µM. The TGI is above 100 µM in [7], above 75.8 µM in [8], above 71.6 µM in assay [9] and above 100 µM in assay [10].

On to `CC[P+](c1ccccc1)(N(C)C)N(C)C`, for which the TGI in assay [1], in assay [2], in assay [3], in [4], in assay [5] and in [6] was above 100 µM in each case. Also, the TGI in [7], in [8], in assay [9] and in [10] was above 100 µM in each case.

As for `COc1cc(/C=C2\C(=O)N(c3ccc(Cl)cc3)C(c3ccccc3)S2(=O)=O)cc(OC)c1OC` (stereo unspecified), the TGI in assay [1] is above 100 µM; in [2] it was above 100 µM; in [3], above 100 µM; in [4], above 100 µM; in assay [5], above 70.7 µM; in assay [6] it was above 100 µM. In addition, the TGI in assay [7], in assay [8], in assay [9] and in assay [10] was above 100 µM throughout.

As for `CC(OC(C)(C)C)C(NC(=O)OCC1c2ccccc2-c2ccccc21)C(=O)NC(Cc1ccccc1)C(=O)OCc1ccccc1` (stereo unspecified) (Fmoc-Thr(tBu)-Phe-OBn; configuration not given here), the TGI in [1], in assay [2], in [3], in assay [4], in [5] and in assay [6] was above 100 µM each time. The TGI in assay [7], in [8], in [9] and in assay [10] was above 100 µM in each case.

As to `CC(=O)CCN1CC2CN=NC2(C#N)C1` (stereo unspecified), the TGI in assay [1] is above 100 µM; in assay [2], above 100 µM; in [3], above 100 µM; in assay [4], above 55.6 µM; in assay [5] it was above 61 µM; in [6], above 76.3 µM. For the same compound, the TGI in assay [7], in assay [8], in [9] and in assay [10] was above 100 µM throughout.

Turning to `CCOC(=O)c1c(-c2ccc(Cl)cc2)c(C#N)c(=S)n(C2OC(COC(C)=O)C(OC(C)=O)C(OC(C)=O)C2OC(C)=O)c1C` (stereo unspecified), the TGI is above 100 µM in assay [1]; above 100 µM in assay [2]; above 100 µM in [3]; above 100 µM in assay [4]; above 100 µM in assay [5]; above 20.1 µM in [6]. Besides, the TGI is above 100 µM in assay [7], above 100 µM in assay [8], above 100 µM in assay [9] and 99 µM in [10].

For the compound `CC1CC(C)(C)CC(OCCN2CCCCC2)(c2ccccc2)C1` (stereo unspecified), the TGI in [1] is 26.7 µM; in [2], 26.7 µM; in assay [3], 25.6 µM; in [4], 32.5 µM; in assay [5] it was 24.9 µM; in assay [6] it was 21.7 µM. The TGI in assay [7] was 18.9 µM; in assay [8], 21.3 µM; in assay [9] it was 22.5 µM; in assay [10], 28.8 µM.

As for `CC1OC23CCCCC2C(C#N)(C#N)C1(C#N)C(=N)O3` (stereo unspecified), the TGI stood at 46.8 µM in assay [1]; 65.2 µM in assay [2]; 69.2 µM in [3]; 98.3 µM in assay [4]; 46.8 µM in [5]; 29.3 µM in assay [6]. Further, the TGI in assay [7] is 36.2 µM; in assay [8] it was 40.2 µM; in [9], 36.5 µM; in assay [10] it was above 100 µM.

As to `Nc1ncnc2c1ncn2CCCNO`, the TGI in assay [1], in assay [2], in [3], in assay [4], in assay [5] and in assay [6] was above 100 µM in each case. In addition, the TGI in assay [7], in assay [8], in [9] and in [10] was above 100 µM throughout.

As to `NCC1OC(OC2C(N)CC(N)C(O)C2OC2OC(CO)C(O)C2O)C(N)C(O)C1O` (stereo unspecified), the TGI in assay [1], in assay [2], in [3], in assay [4], in [5] and in assay [6] was above 100 µM each time. Besides, the TGI in assay [7], in [8], in assay [9] and in assay [10] was above 100 µM each time. Further, the GI50 in [7] is above 100 µM.

Regarding `CCOC(=O)C(NC(=O)c1ccccc1)(Nc1ccc(S(=O)(=O)Nc2cc(C)on2)cc1)C(F)(F)F` (stereo unspecified), the TGI in assay [1], in assay [2], in assay [3], in assay [4], in [5] and in [6] was above 100 µM each time. For the same compound, the TGI in assay [7], in [8], in [9] and in assay [10] was above 100 µM in each case.

With `O=c1[nH]c2ccccc2c(=O)n1/N=C\c1ccccc1O`, the TGI in assay [1], in [2], in assay [3], in assay [4], in [5] and in assay [6] was above 100 µM each time. The TGI in [7], in assay [8], in [9] and in assay [10] was above 100 µM in each case.

As for `CCOc1ccc(Nc2nc(N)nc(N)c2N=O)cc1`, the TGI was above 100 µM in assay [1]; above 100 µM in assay [2]; above 100 µM in [3]; above 100 µM in [4]; above 100 µM in assay [5]; 62.8 µM in assay [6]. Also, the TGI in [7] was above 100 µM; in assay [8] it was above 100 µM; in [9], above 100 µM; in [10], 91.7 µM.

In the case of `c1ccc(CN2CCC(CNc3ncnc4ccccc34)C2)cc1` (stereo unspecified), the TGI in assay [1], in assay [2], in assay [3], in assay [4], in assay [5] and in assay [6] was above 100 µM throughout. Besides, the TGI in assay [7], in assay [8], in [9] and in assay [10] was above 100 µM in each case.

Consider `CCOC(=O)NC(Nc1ccc(C(=O)O)cc1)(C(F)(F)F)C(F)(F)F`, for which the TGI in [1], in [2], in [3], in [4], in assay [5] and in assay [6] was above 100 µM in each case. For the same compound, the TGI in [7], in assay [8], in [9] and in [10] was above 100 µM in each case.

Take `Cn1c(COC(=O)NC2CCCCC2)c(COC(=O)NC2CCCCC2)c2ccc3ccccc3c21`: the TGI in assay [1], in assay [2], in assay [3], in assay [4], in assay [5] and in assay [6] was above 100 µM in each case. Besides, the TGI is above 100 µM in assay [7], above 100 µM in [8], above 100 µM in [9] and 78.9 µM in [10].

Consider `COC(=O)c1sc2c(Cl)c(Cl)sc2c1Cl`, for which the TGI is 82 µM in assay [1]; above 100 µM in [2]; above 100 µM in [3]; above 100 µM in assay [4]; above 100 µM in assay [5]; above 100 µM in assay [6]. Further, the TGI in assay [7], in assay [8], in assay [9] and in assay [10] was above 100 µM in each case.

(Values after PubChem BioAssay (NCI).)
